Results from patent US12662491B2 (Redona Therapeutics, Inc., priority 2020, dated 2026).

molecular target: T1, Zcchc11 enzyme (Homo sapiens, UniProt Q5TAX3); test: TUTase assay (Zcchc11 assay, Lin28a-dependent polyuridylation of pre-let-7); type: biochemical; details: Lin28a-dependent Zcchc11 (Z11) TUTase activity; read-out: Potency Lin28a-dep Z11 IC50
T1 construct: made in house; host or cells: HEK293 cells (Zcchc11); E. coli Rosetta II (LIN28A)
T1 sequence (Q5TAX3 212-1420): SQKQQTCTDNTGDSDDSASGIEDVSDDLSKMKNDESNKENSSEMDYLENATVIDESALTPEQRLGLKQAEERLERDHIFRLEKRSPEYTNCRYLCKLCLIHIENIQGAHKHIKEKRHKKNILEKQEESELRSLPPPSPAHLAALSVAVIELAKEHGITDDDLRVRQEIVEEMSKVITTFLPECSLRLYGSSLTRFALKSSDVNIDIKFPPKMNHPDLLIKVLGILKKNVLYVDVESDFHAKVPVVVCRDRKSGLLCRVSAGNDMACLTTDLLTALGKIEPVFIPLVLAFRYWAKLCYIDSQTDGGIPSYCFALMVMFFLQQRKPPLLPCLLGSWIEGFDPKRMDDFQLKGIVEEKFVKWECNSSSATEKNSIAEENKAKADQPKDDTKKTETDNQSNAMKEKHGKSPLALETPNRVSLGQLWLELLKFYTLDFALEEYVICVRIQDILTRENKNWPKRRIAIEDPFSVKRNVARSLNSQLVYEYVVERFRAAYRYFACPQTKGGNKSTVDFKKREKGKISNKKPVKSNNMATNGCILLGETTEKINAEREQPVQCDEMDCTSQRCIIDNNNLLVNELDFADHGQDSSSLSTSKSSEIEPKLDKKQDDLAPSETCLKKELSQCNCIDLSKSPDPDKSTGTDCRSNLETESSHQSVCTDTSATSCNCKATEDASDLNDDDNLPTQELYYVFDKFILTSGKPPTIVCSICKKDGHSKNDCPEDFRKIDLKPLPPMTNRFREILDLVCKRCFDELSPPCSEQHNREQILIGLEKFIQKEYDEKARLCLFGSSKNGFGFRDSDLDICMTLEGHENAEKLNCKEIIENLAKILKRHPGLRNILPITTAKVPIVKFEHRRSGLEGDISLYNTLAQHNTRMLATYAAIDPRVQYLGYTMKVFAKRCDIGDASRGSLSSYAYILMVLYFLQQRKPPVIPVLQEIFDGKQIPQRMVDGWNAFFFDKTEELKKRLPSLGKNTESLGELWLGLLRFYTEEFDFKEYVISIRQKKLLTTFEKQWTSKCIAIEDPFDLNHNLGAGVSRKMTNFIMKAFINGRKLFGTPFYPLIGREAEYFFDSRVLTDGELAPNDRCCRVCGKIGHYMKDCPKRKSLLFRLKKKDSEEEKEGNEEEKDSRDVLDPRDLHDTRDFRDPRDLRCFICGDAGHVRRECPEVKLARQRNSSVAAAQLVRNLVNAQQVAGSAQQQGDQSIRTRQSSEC
Summary of the method: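 Polyuridylation measured as fluorescein loss when a rhodamine-labelled A20 probe anneals to U-tails added to fluorescein pre-let-7 (2 nM). Reaction: truncated Zcchc11 0.2 nM, E. coli-made LIN28A 10 nM, UTP 5 uM, HEPES pH 7.3, room temperature. Initial rates fitted to four-parameter IC50.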

IC50, ≤ 1000 nM:
COCCN(C)C1CN(c2ccc(-n3cc(C(=O)O)c(=O)c4cc(F)c(N5CC(c6cccnc6)C[C@@H]5COc5ncccc5Cl)cc43)cn2)C1 (stereo partly drawn) [Compound 326, 7-[(2R)-2-[[(3-Chloropyridin-2-yl)oxy]methyl]-4-(pyridin-3-yl)pyrrolidin-1-yl]-6-fluoro-1-(6-[3-[(2-methoxyethyl) (methyl)amino]azetidin-1-yl]pyridin-3-yl)-4-oxoquinoline-3-carboxylic acid]
COC1C[C@H](COc2ncccc2Cl)N(c2cc3c(cc2Cl)c(=O)c(C(=O)O)cn3-c2ccc(N3CC(N(C)C)C3)nc2)C1 (stereo partly drawn) [Compound 327, 6-Chloro-7-[(2R)-2-[[(3-chloropyridin-2-yl)oxy]methyl]-4-methoxy-pyrrolidin-1-yl]-1-[6-[3-(dimethyl-amino)azetidin-1-yl]pyridin-3-yl]-4-oxoquinoline-3-carboxylic acid]
CC1C[C@H](COc2ncccc2Cl)N(c2cc3c(cc2F)c(=O)c(C(=O)O)cn3-c2ccc(N3CC(N(C)C)C3)nc2)C1 (stereo partly drawn) [Compound 330, 7-[(2R)-2-[[(3-Chloropyridin-2-yl)oxy]methyl]-4-methyl-pyrrolidin-1-yl]-1-[6-[3-(dimethyl-amino)azetidin-1-yl]pyridin-3-yl]-6-fluoro-4-oxoquinoline-3-carboxylic acic]
CN(C)C1CN(c2ccc(-n3cc(C(=O)O)c(=O)c4cc(Cl)c(N5CCC[C@@H]5COc5nc(O)ccc5Cl)cc43)cn2)C1 [Compound 331, 6-Chloro-7-[(2R)-2-[[(3-chloro-6-hydroxy-pyridin-2-yl)oxy]methyl]pyrrolidin-1-yl]-1-[6-[3-(dimethyl-amino)azetidin-1-yl]pyridin-3-yl]-4-oxoquinoline-3-carboxylic acid]
CC1CCN(c2cc3c(cc2Cl)c(=O)c(C(=O)O)cn3-c2ccc(N3CC(N(C)C)C3)nc2)C1COc1nc(N(C)C)ccc1Cl (stereo not drawn) [Compound 332, 6-Chloro-7-[2-({[3-chloro-6-(dimethyl-amino)pyridin-2-yl]oxy}methyl)-3-methyl-pyrrolidin-1-yl]-1-{6-[3-(dimethyl-amino)azetidin-1-yl]pyridin-3-yl}-4-oxoquinoline-3-carboxylic acid]
CC1CCN(c2cc3c(cc2Cl)c(=O)c(C(=O)O)cn3-c2ccnc(N)c2)[C@H]1COc1nc(N(C)C)ccc1Cl (stereo partly drawn) [Compound 333]
CN(C)C1CN(c2ccc(-n3cc(C(=O)O)c(=O)c4cc(F)c(N5C6CC6C[C@@H]5COc5nc6c(ccn6C)cc5Cl)cc43)cn2)C1 (stereo partly drawn) [Compound 334, 7-[(3R)-3-[({5-chloro-1-methylpyrrolo [2,3-b]pyridin-6-yl}oxy)methyl]-2-azabicyclo [3.1.0]hexan-2-yl]-1-{6-[3-(dimethyl-amino)azetidin-1-yl]pyridin-3-yl}-6-fluoro-4-oxoquinoline-3-carboxylic acid]
CN(C)c1ccc(Cl)c(OC[C@H]2C[C@@H]3C[C@@H]3N2c2cc3c(cc2F)c(=O)c(C(=O)O)cn3-c2ccc(N3CC(N(C)C)C3)nc2)n1 [Compound 335, 7-[(1S,3R,5S)-3-({[3-Chloro-6-(dimethyl-amino)pyridin-2-yl]oxy}methyl)-2-azabicyclo [3.1.0]hexan-2-yl]-1-{6-[3-(dimethyl-amino)azetidin-1-yl]pyridin-3-yl}-6-fluoro-4-oxoquinoline-3-carboxylic acid]
CN(C)C1CN(c2ccc(-n3cc(C(=O)O)c(=O)c4cc(Cl)c(N5C6CC6C[C@@H]5COc5nc(N)ccc5Cl)cc43)cn2)C1 (stereo partly drawn) [Compound 336, 7-[(3R)-3-{[(6-Amino-3-chloropyridin-2-yl)oxy]methyl}-2-azabicyclo [3.1.0]hexan-2-yl]-6-chloro-1-{6-[3-(dimethyl-amino)azetidin-1-yl]pyridin-3-yl}-4-oxoquinoline-3-carboxylic acid]
CN(C)C1CN(c2ccc(-n3cc(C(=O)O)c(=O)c4cc(F)c(N5[C@@H](COc6nc7c(ccn7C)cc6Cl)C[C@H]6C[C@H]65)cc43)cn2)C1 [Compound 337, 7-[(1R,3R,5R)-3-[{{5-Chloro-1-methyl-pyrrolo[2,3-b]pyridin-6-yl}oxy)methyl]-2-azabicyclo [3.1.0]hexan-2-yl]-1-{6-[3-(dimethyl-amino)azetidin-1-yl]pyridin-3-yl}-6-fluoro-4-oxoquinoline-3-carboxylic acid]
CN(C)c1ccc(Cl)c(OC[C@H]2C[C@H]3C[C@H]3N2c2cc3c(cc2F)c(=O)c(C(=O)O)cn3-c2ccc(N3CC(N(C)C)C3)nc2)n1 [Compound 338, 7-[(1R,3R,5R)-3-({[3-chloro-6-(dimethyl-amino)pyridin-2-yl]oxy}methyl)-2-azabicyclo [3.1.0]hexan-2-yl]-1-{6-[3-(dimethyl-amino)azetidin-1-yl]pyridin-3-yl}-6-fluoro-4-oxoquinoline-3-carboxylic acid]
CN(C)C1CN(c2ccc(-n3cc(C(=O)O)c(=O)c4cc(Cl)c(N5[C@@H](COc6nc(N)ccc6Cl)C[C@H]6C[C@H]65)cc43)cn2)C1 [Compound 339, 7-[(3R)-3-{[(6 Amino-3-chloropyridin-2-yl)oxy]methyl}-2-azabicyclo [3.1.0]hexan-2-yl]-6-chloro-1-{6-[3-(dimethyl-amino)azetidin-1-yl]pyridin-3-yl}-4-oxoquinoline-3-carboxylic acid]
COc1ccc(Cl)c(OC[C@H]2C[C@H]3C[C@H]3N2c2cc3c(cc2F)c(=O)c(C(=O)O)cn3-c2ccc(N(C)C)nc2)n1 [Compound 340, 7-[(1R,3R,5R)-3-{[(3-Chloro-6-methoxy-pyridin-2-yl)oxy]methyl}-2-azabicyclo [3.1.0]hexan-2-yl]-1-[6-(dimethyl-amino)pyridin-3-yl]-6-fluoro-4-oxoquinoline-3-carboxylic acid]
COc1ccc(Cl)c(OC[C@H]2C[C@H]3C[C@H]3N2c2cc3c(cc2Cl)c(=O)c(C(=O)O)cn3-c2ccc(N(C)C)nc2)n1 [Compound 341, 6-Chloro-7-[(1R,3R,5R)-3-{[(3-chloro-6-methoxy-pyridin-2 yl)oxy]methyl}-2-azabicyclo [3.1.0]hexan-2-yl]-1-[6-(dimethyl-amino)pyridin-3-yl]-4-oxoquinoline-3-carboxylic acid]
COc1ccc(F)c(OC[C@H]2C[C@H]3C[C@H]3N2c2cc3c(cc2Cl)c(=O)c(C(=O)O)cn3-c2ccnc(N)c2)n1 [Compound 342, 1-(2-Aminopyridin-4-yl)-6-chloro-7-[(1R,3R,5R)-3-{[(3-fluoro-6-methoxy-pyridin-2-yl)oxy]methyl}-2-azabicyclo [3.1.0]hexan-2-yl]-4-oxoquinoline-3-carboxylic acid]
Cc1ccc(F)c(OC[C@H]2C[C@H]3C[C@H]3N2c2cc3c(cc2Cl)c(=O)c(C(=O)O)cn3-c2ccc(N(C)C)nc2)n1 [Compound 343, 6-Chloro-1-[6-(dimethyl-amino)pyridin-3-yl]-7-[(1R,3R,5R)-3-{[(3-fluoro-6-methylpyridin-2-yl)oxy]methyl}-2-azabicyclo [3.1.0]hexan-2-yl]-4-oxoquinoline-3-carboxylic acid]
Cc1ccc(F)c(OC[C@H]2C[C@H]3C[C@H]3N2c2cc3c(cc2F)c(=O)c(C(=O)O)cn3-c2ccc(N(C)C)nc2)n1 [Compound 344, 1-[6-(Dimethyl-amino)pyridin-3-yl]-6-fluoro-7-[(1R,3R,5R)-3-{[(3-fluoro-6-methylpyridin-2-yl)oxy]methyl}-2-azabicyclo [3.1.0]hexan-2-yl]-4-oxoquinoline-3-carboxylic acid]
COc1ccc(Cl)c(OC[C@H]2C[C@@H](c3cccnc3)CN2c2cc3c(cc2Cl)c(=O)c(C(=O)O)cn3-c2ccc(N3CC(N(C)C)C3)nc2)n1 [Compound 345, 6-chloro-7-((2R,4S)-2-(((3-chloro-6-methoxy-pyridin-2-yl)oxy)methyl)-4-(pyridin-3-yl)pyrrolidin-1-yl)-1-(6-(3-(dimethyl-amino)azetidin-1-yl)pyridin-3-yl)-4-oxo-1,4-dihydro-quinoline-3-carboxylic acid]
